Results taken from article PMC5750218, “Protein-inspired antibiotics active against vancomycin- and daptomycin-resistant bacteria” (Nature Communications, 2018).
In brackets after ≈: the same amount, converted by molar mass.

Legend:
Assay in all cases: microbe, parasite or virus in culture
[1] = tested on: Bacillus subtilis ATCC 6633; format: cell-based; conditions: for Ac2Kaa concentration required to neutralise MIC activity / MIC: ATCC 6633, 48 h; for Molar excess of Ac2Kaa ligand required to antagonise antibacterial activity: [ligand]/[antibiotic], B. subtilis ATCC 6633, 24 h
Description: All compounds were dissolved in H2O. Bacillus subtilis ATCC® 6633™ NRS-231 was cultured in MHB at 37 °C for 48 h. A sample of each culture was then diluted 40-fold in fresh MHB and incubated at 37 °C for 18 h. Compounds were added to each row of 96-well NBS plates (NBS, Corning 3641), in duplicate. The tripeptide N,N΄-diacetyl-L-Lys-D-Ala-D-Ala was serially diluted twofold across the compound-containing wells from 6400 to 3 µg mL^−1. To this the resultant mid-log phase cultures were diluted to the final concentration of 5 × 10^5 CFU mL^−1, then added to wells of the compound-containing plates. All the plates were covered and incubated at 37 °C for 24 h.

[2] = tested on: Methicillin-resistant S. aureus ATCC 43300; conditions: ATCC 43300, 24 h
Description: (§1) Antimicrobial activity of compounds was tested against a number of bacterial strains by broth microdilution (BMD) assay with MIC determination, including S. aureus (MSSA ATCC® 29213™, MRSA ATCC® 43300™, VISA NARSA NRS1, VISA NARSA NRS4), Streptococcus pneumoniae (MDR ATCC® 700677™) and Enterococcus faecium (MDR VanA ATCC® 51559™). ATCC strains were sourced from the American Type Culture Collection and NRS strains from NARSA (Network on Antimicrobial Resistance in S. aureus) via BEI Resources (www.beiresources.org). All compounds were prepared to 160 µg mL^−1 solution in water from a stock solution of 1 mM concentration.
[…] […] Standards ranged from 64 to 0.03 µg mL^−1 and compounds from 8 to 0.003 µg mL^−1 with final assay volumes of 100 µL per well. Gram-positive bacteria were cultured in Mueller Hinton broth (MHB) (Bactolaboratories, Cat. no. 211443) at 37 °C overnight. A sample of each culture was then diluted 40-fold in fresh MHB and incubated at 37 °C for 2–3 h. […] All the plates were covered and incubated at 37 °C for 24 h. MICs were the lowest concentration showing no visible growth.

[3] = tested on: Multi-drug-resistant S. pneumoniae ATCC 700677; conditions: ATCC 700677
Description: as §1
(§2) The compounds, along with standard antibiotics were serially diluted twofold across the wells of 96-well non-binding surface (NBS) polystyrene plates (Corning 3641). […] Standards ranged from 64 to 0.03 µg mL^−1 and compounds from 8 to 0.003 µg mL^−1 with final assay volumes of 100 µL per well. Gram-positive bacteria were cultured in Mueller Hinton broth (MHB) (Bactolaboratories, Cat. no. 211443) at 37 °C overnight. A sample of each culture was then diluted 40-fold in fresh MHB and incubated at 37 °C for 2–3 h. […] All the plates were covered and incubated at 37 °C for 24 h. MICs were the lowest concentration showing no visible growth.

[4] = tested on: Vancomycin-intermediate S. aureus NRS1; conditions: Vancomycin-intermediate NRS1
Description: as §1, §2

[5] = tested on: Vancomycin-resistant (VanA) Enterococcus faecium ATCC 51559; conditions: ATCC 51559
Description: as §1, §2

SMILES | Ac2Kaa concentration required to neutralise MIC activity [1] | MIC [1] | Molar excess of Ac2Kaa ligand required to antagonise antibacterial activity [1] | MIC MRSA [2] | MIC MDR S.P. [3] | MIC VISA [4] | MIC VRE [5]
CN[C@H](CC(C)C)C(=O)N[C@H]1C(=O)N[C@@H](CC(N)=O)C(=O)N[C@H]2C(=O)N[C@H]3C(=O)N[C@H](C(=O)N[C@H](C(=O)NCCCC[C@H](NC(=O)[C@H](CCCCN)NC(=O)[C@H](CCCCN)NC(=O)[C@H](CCCCN)NC(=O)c4ccc(Oc5ccccc5)cc4)C(=O)O)c4cc(O)cc(O)c4-c4cc3ccc4O)[C@H](O)c3ccc(c(Cl)c3)Oc3cc2cc(c3O[C@@H]2O[C@H](CO)[C@@H](O)[C@H](O)[C@H]2O[C@H]2C[C@](C)(N)[C@H](O)[C@H](C)O2)Oc2ccc(cc2Cl)[C@H]1O [Compound 40, POB-KKK-K-(Vancomycin)-OH] | 12.5 µg/mL | 0.03 µg/mL (≈ 0.0139 µM) | 916 | – | – | – | –
CCCCCCCCCCC(=O)NCC(=O)N[C@@H](CO)C(=O)N[C@@H](CCCCN)C(=O)N[C@@H](CCCCN)C(=O)N[C@@H](CCCCN)C(=O)N[C@@H](CCCCNC(=O)[C@H]1NC(=O)[C@H]2NC(=O)[C@H](NC(=O)[C@@H]3NC(=O)[C@H](CC(N)=O)NC(=O)[C@H](NC(=O)[C@@H](CC(C)C)NC)[C@H](O)c4ccc(c(Cl)c4)Oc4cc3cc(c4O[C@@H]3O[C@H](CO)[C@@H](O)[C@H](O)[C@H]3O[C@H]3C[C@](C)(N)[C@H](O)[C@H](C)O3)Oc3ccc(cc3Cl)[C@H]2O)c2ccc(O)c(c2)-c2c(O)cc(O)cc21)C(=O)O [Compound 39, nC10CO-GSKKK-K-(Vancomycin)-OH] | 400 µg/mL | 0.06 µg/mL (≈ 0.0264 µM) | 30,569 | – | – | – | –
CN[C@H](CC(C)C)C(=O)N[C@H]1C(=O)N[C@@H](CC(N)=O)C(=O)N[C@H]2C(=O)N[C@H]3C(=O)N[C@H](C(=O)N[C@H](C(=O)NCCCC[C@H](NC(=O)[C@H](CCCCN)NC(=O)[C@H](CCCCN)NC(=O)[C@H](CCCCN)NC(=O)[C@H](CCCCNC(=O)c4ccc(Oc5ccccc5)cc4)NC(=O)c4ccc(Oc5ccccc5)cc4)C(=O)O)c4cc(O)cc(O)c4-c4cc3ccc4O)[C@H](O)c3ccc(c(Cl)c3)Oc3cc2cc(c3O[C@@H]2O[C@H](CO)[C@@H](O)[C@H](O)[C@H]2O[C@H]2C[C@](C)(N)[C@H](O)[C@H](C)O2)Oc2ccc(cc2Cl)[C@H]1O [Compound 42, POB2K-KKK-K-(Vancomycin)-OH] | 1600 µg/mL | ≤ 0.004 µg/mL | 131,225 | – | – | – | –
CNC(=O)[C@H](CCCNC(=O)[C@H]1NC(=O)[C@H]2NC(=O)[C@H](NC(=O)[C@@H]3NC(=O)[C@H](CC(N)=O)NC(=O)[C@H](NC(=O)[C@@H](CC(C)C)NC)[C@H](O)c4ccc(c(Cl)c4)Oc4cc3cc(c4O[C@@H]3O[C@H](CO)[C@@H](O)[C@H](O)[C@H]3O[C@H]3C[C@](C)(N)[C@H](O)[C@H](C)O3)Oc3ccc(cc3Cl)[C@H]2O)c2ccc(O)c(c2)-c2c(O)cc(O)cc21)NC(=O)[C@H](CCCCN)NC(=O)[C@H](CCCCN)NC(=O)[C@H](CCCCNC(=O)c1ccc(Oc2ccccc2)cc1)NC(=O)c1ccc(Oc2ccccc2)cc1 [Compound 35, POB2K-KK-Orn(Vancomycin)-NHMe] | – | – | – | <0.003 µg/mL | 0.005 µg/mL (≈ 0.00212 µM) | 0.25 µg/mL (≈ 0.106 µM) | 1.25 µg/mL (≈ 0.531 µM)
CNC(=O)[C@H](CCCCNC(=O)[C@H]1NC(=O)[C@H]2NC(=O)[C@H](NC(=O)[C@@H]3NC(=O)[C@H](CC(N)=O)NC(=O)[C@H](NC(=O)[C@@H](CC(C)C)NC)[C@H](O)c4ccc(c(Cl)c4)Oc4cc3cc(c4O[C@@H]3O[C@H](CO)[C@@H](O)[C@H](O)[C@H]3O[C@H]3C[C@](C)(N)[C@H](O)[C@H](C)O3)Oc3ccc(cc3Cl)[C@H]2O)c2ccc(O)c(c2)-c2c(O)cc(O)cc21)NC(=O)[C@H](CCCN)NC(=O)[C@H](CCCCN)NC(=O)[C@H](CCCCNC(=O)c1ccc(Oc2ccccc2)cc1)NC(=O)c1ccc(Oc2ccccc2)cc1 [Compound 32, POB2K-K-Orn-K(Vancomycin)-NHMe] | – | – | – | <0.003 µg/mL | <0.003 µg/mL | 0.0375 µg/mL (≈ 0.0159 µM) | 1 µg/mL (≈ 0.425 µM)
CN[C@H](CC(C)C)C(=O)N[C@H]1C(=O)N[C@@H](CC(N)=O)C(=O)N[C@H]2C(=O)N[C@H]3C(=O)N[C@H](C(=O)N[C@H](C(=O)NCCCC[C@H](NC(=O)[C@H](CCCCN)NC(=O)[C@H](CCCCN)NC(=O)c4ccc(Oc5ccccc5)cc4)C(=O)O)c4cc(O)cc(O)c4-c4cc3ccc4O)[C@H](O)c3ccc(c(Cl)c3)Oc3cc2cc(c3O[C@@H]2O[C@H](CO)[C@@H](O)[C@H](O)[C@H]2O[C@H]2C[C@](C)(N)[C@H](O)[C@H](C)O2)Oc2ccc(cc2Cl)[C@H]1O [Compound 41, POB-KK-K-(Vancomycin)-OH] | 1.56 µg/mL | 0.06 µg/mL (≈ 0.0296 µM) | 104 | – | – | – | –
CNC(=O)[C@H](CCCCNC(=O)[C@H]1NC(=O)[C@H]2NC(=O)[C@H](NC(=O)[C@@H]3NC(=O)[C@H](CC(N)=O)NC(=O)[C@H](NC(=O)[C@@H](CC(C)C)NC)[C@H](O)c4ccc(c(Cl)c4)Oc4cc3cc(c4O[C@@H]3O[C@H](CO)[C@@H](O)[C@H](O)[C@H]3O[C@H]3C[C@](C)(N)[C@H](O)[C@H](C)O3)Oc3ccc(cc3Cl)[C@H]2O)c2ccc(O)c(c2)-c2c(O)cc(O)cc21)NC(=O)[C@H](CN)NC(=O)[C@H](CN)NC(=O)[C@H](CCCCNC(=O)c1ccc(Oc2ccccc2)cc1)NC(=O)c1ccc(Oc2ccccc2)cc1 [Compound 29, POB2K-Dap-Dap-K(Vancomycin)-NHMe] | – | – | – | 0.0045 µg/mL (≈ 0.00197 µM) | 0.0085 µg/mL (≈ 0.00372 µM) | 0.0925 µg/mL (≈ 0.0405 µM) | 0.75 µg/mL (≈ 0.328 µM)
